Results from patent US11286268B1, “EIF4E-inhibiting compounds and methods” (EFFECTOR THERAPEUTICS, INC., priority 2019, dated 2022).
Where two headings read alike, the source gives them in different places.

Target: recombinant eIF4E (Homo sapiens (Human), UniProt P06730)
Experiment: Fluorescence polarization competition assay for eIF4E binding potency
Outline: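 Competition of test compound against 20 nM EDA-m^7GDP-ATTO-550 for 75 nM recombinant eIF4E, pre-incubated 5 min, in 20 mM Tris pH 7.5, 100 mM NaCl, 1 mM DTT, 0.02% Tween-20, 1% DMSO. Equilibrated 30 min at room temperature, dark; fluorescence polarization read. IC50 from 8-point, 3-fold dilution series.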

[1] = inhibition of eIF4E/EDA-m7GDP-ATTO-550 binding, calculated IC50 values, Table 4B, read-out: IC50
[2] = fluorescence polarization competition, 75 nM recombinant eIF4E, 20 nM EDA-m7GDP-ATTO-550, IC50 class, read-out: elF4E FP
[3] = inhibition of eIF4E/EDA-m7GDP-ATTO-550 binding by 50%, Table 4B calculated values, read-out: IC50

Chain of recombinant eIF4E (P06730 whole entry): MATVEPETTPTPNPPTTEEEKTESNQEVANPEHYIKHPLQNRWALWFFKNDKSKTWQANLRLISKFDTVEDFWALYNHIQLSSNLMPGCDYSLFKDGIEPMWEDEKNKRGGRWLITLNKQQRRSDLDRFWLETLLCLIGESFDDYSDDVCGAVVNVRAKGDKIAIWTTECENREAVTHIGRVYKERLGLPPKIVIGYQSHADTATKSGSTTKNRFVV

| SMILES | IC50 [1] | IC50 [2] | IC50 [3] |
| --- | --- | --- | --- |
| Cc1nc2cnc(N3CCN(C4CC(F)(F)C4)CC3)c(C#N)c2c(=O)n1CC#Cc1ccc(Cl)cc1-c1ccnc2c(C(=O)O)csc12 [compound 1355] | 24.8 nM | – | – |
| Cc1nc2cnc(N3CCN(C)C4CC43)c(C#N)c2c(=O)n1CCOc1ccc(Cl)cc1-c1cccc2c(C(=O)O)csc12 (stereo not shown) [compound 2020] | 33 nM | – | – |
| Cc1c(CCOc2ccc(Cl)cc2-c2ccnc3c(C(=O)O)csc23)c(=O)c2c(C#N)cc(C(F)(F)F)cc2n1CCF [compound 362] | – | 50 to 1000 nM | 72.2 nM |
| Cc1nc2cnc(C3=CCN(C)CC3)c(C#N)c2c(=O)n1CCOc1ccc(Cl)cc1-c1ccnc2c(C(=O)O)csc12 [compound 888] | – | < 50 nM | 40.2 nM |
| Cc1nc2cnc(N3CCN(C)CC3C)c(C#N)c2c(=O)n1CCOc1ccc(Cl)cc1-c1ccnc2c(C(=O)O)csc12 (stereo not shown) [compound 1335] | 12.8 nM | – | – |
| Cc1cc(-c2cc(Cl)ccc2OCCn2c(C)nc3cc(Cl)c(N4CC(O)C4)c(C#N)c3c2=O)c2scc(C(=O)O)c2n1 [compound 698] | – | < 50 nM | 3.4 nM |
| Cc1cc(-c2cc(Cl)ccc2OCCn2c(C)nc3cc(C(F)(F)F)c(-c4ccccn4)c(C#N)c3c2=O)c2scc(C(=O)O)c2n1 [compound 631] | – | < 50 nM | 3.41 nM |
| Cc1nc2cc(C(F)(F)F)c(N3CCN(C)CC3)cc2c(=O)n1CCOc1ccc(Cl)cc1-c1ccnc2c(C(=O)NS(C)(=O)=O)csc12 [compound 1299] | 32.1 nM | – | – |
| Cc1nc2cnc(N3CCN(C)CC3)c(C#N)c2c(=O)n1CCOc1ccc(Cl)cc1-c1ccnc2ccsc12 [compound 1257] | 52.5 nM | – | – |
| Cc1nc2cc(C(F)(F)F)c(N3CCN(C)CC3)c(C#N)c2c(=O)n1CCOc1ccc(Cl)cc1-c1ccnc2cc(C#N)sc12 [compound 1245] | 15.6 nM | < 50 nM | – |
| O=C(O)c1cc(-c2cc(Cl)ccc2OCCn2nnc3ccccc3c2=O)ccn1 [compound 2014] | 12200 nM | – | – |
| Cc1nc2cnc(N(C)C3CCN(C4(C#N)CC4)CC3)c(C#N)c2c(=O)n1CC#Cc1ccc(Cl)cc1-c1ccnc2c(C(=O)O)csc12 [compound 1494] | 24.7 nM | – | – |
| Cc1cc(-c2cc(Cl)ccc2OCCn2c(C)nc3cc(Cl)c(N4CC(F)(F)C4)c(C#N)c3c2=O)c2scc(C(=O)O)c2n1 [compound 688] | – | < 50 nM | 22.8 nM |
| O=C(O)c1csc2c(-c3cc(Cl)ccc3OCCn3c(=O)c4ccccc4c4cnncc43)ccnc12 [compound 658] | – | > 1000 nM | 1290 nM |
| N#Cc1cc2c(=O)n(CCOc3ccc(Cl)cc3-c3cc4c(c(C(=O)O)c3)OCC4)cnc2cn1 [compound 104] | – | 50 to 1000 nM | 586 nM |
| Cc1ccc(-c2c(C(F)(F)F)cc3nc(C)n(CCOc4ccc(Cl)cc4-c4cc(C)nc5c(C(=O)O)csc45)c(=O)c3c2C#N)c(C)n1 [compound 349] | – | < 50 nM | 5.84 nM |
| CCOP(=O)(OCC)c1csc2c(-c3cc(Cl)ccc3OCCn3c(C)nc4cnc(N(C)C5CCN(CC(F)F)CC5)c(C#N)c4c3=O)ccnc12 [compound 1616] | 11.5 nM | – | – |
| Cc1nc2cnc(N3CCN(C4(COC(F)F)CC4)CC3)c(C#N)c2c(=O)n1CC#Cc1ccc(Cl)cc1-c1ccnc2c(C(=O)O)csc12 [compound 1510] | 20.1 nM | – | – |
| Cc1nc2cnc(N(C)C3[C@@H]4C[C@H]3CN(CC(C)(F)F)C4)c(C#N)c2c(=O)n1CC#Cc1ccc(Cl)cc1-c1ccnc2c(C(=O)O)csc12 (stereo partly shown) [compound 1691] | 17.9 nM | – | – |
| Cc1ccc(C)c(-c2c(C(F)(F)F)cc3nc(C)n(CCOc4ccc(Cl)cc4-c4cc(C)nc5c(C(=O)O)csc45)c(=O)c3c2C#N)n1 [compound 906] | – | < 50 nM | 17.6 nM |
| Cc1cc(-c2cc(Cl)ccc2OCCn2c(C)nc3cc(Cl)c(N(C)C(C)(C)C)c(C#N)c3c2=O)c2scc(C(=O)O)c2n1 [compound 955] | – | < 50 nM | 10.2 nM |
| Cc1nc2cnc(N3CCN(CC(F)(F)F)CC3)c(C#N)c2c(=O)n1CC#Cc1ccc(Cl)cc1-c1ccnc2c(C(=O)NS(C)(=O)=O)csc12 [compound 1362] | 14.1 nM | – | – |
| Cc1nc2cnc(N(C)C3CCN(CC(C)(F)F)CC3)c(C#N)c2c(=O)n1CC#Cc1ccc(Cl)cc1-c1ccnc2c(C(=O)NS(=O)(=O)c3cccnc3)csc12 [compound 1144] | – | < 50 nM | 34.4 nM |
| Cc1nc2cnc(N3CCC4(CC3)CN(CC(F)F)C4)c(C#N)c2c(=O)n1CC#Cc1ccc(Cl)cc1-c1ccnc2c(C(=O)NS(C)(=O)=O)csc12 [compound 1648] | 13.3 nM | – | – |
| Cc1cc(-c2cc(Cl)ccc2OCCn2c(C)nc3cnc(N[N+](C)(C)C)c(C#N)c3c2=O)c2scc(C(=O)O)c2n1 [compound 1631] | 16.1 nM | – | – |
| Cc1cc(-c2cc(Cl)ccc2OCCn2c(C)nc3cc(Cl)c(N4CCN(C(C)(C)C)CC4)c(C#N)c3c2=O)c2sc(C)c(C(=O)O)c2n1 [compound 1201] | 22.8 nM | < 50 nM | – |

| SMILES | IC50 [1] | IC50 [2] | IC50 [3] |
| --- | --- | --- | --- |
| Cc1c(C(F)(F)F)cc2nc(C)n(CCOc3ccc(Cl)cc3-c3ccnc4c(C(=O)O)csc34)c(=O)c2c1C#N [compound 415] | – | < 50 nM | 14.3 nM |
| Cc1nc2cnc(N(C)C3CCN(CC(C)(F)F)CC3)c(C#N)c2c(=O)n1CC#Cc1ccc(Cl)cc1-c1ccnc2c(C(=O)NS(=O)(=O)CC(F)F)csc12 [compound 1105] | – | < 50 nM | 21.7 nM |
| Cc1cc(-c2cc(Cl)ccc2OCCn2c(C)nc3cnc(-c4cc(F)cnc4C)c(C#N)c3c2=O)c2scc(C(=O)O)c2n1 [compound 1051] | – | < 50 nM | 5.02 nM |
| Cc1cc(-c2cc(Cl)ccc2OCCn2c(C)nc3cc(Cl)c(Cl)c(C#N)c3c2=O)c2scc(C(=O)O)c2n1 [compound 582] | – | < 50 nM | 12.7 nM |
| Cc1ccc(S(=O)(=O)NC(=O)c2csc3c(-c4cc(Cl)ccc4C#CCn4c(C)nc5cnc(N(C)C6CCN(CC(C)(F)F)CC6)c(C#N)c5c4=O)ccnc23)cn1 [compound 1680] | 23.3 nM | – | – |
| Cc1cc(-c2cc(Cl)ccc2OCCn2c(C)nc3cc(Cl)c(N4CC(C)(C)C4)c(C#N)c3c2=O)c2scc(C(=O)O)c2n1 [compound 691] | – | < 50 nM | 7.17 nM |
| Cc1nc2cc(CN(C)C)c(C(F)F)c(C#N)c2c(=O)n1CCOc1ccc(Cl)cc1-c1ccnc2c(C(=O)O)csc12 [compound 515] | – | < 50 nM | 46 nM |
| Cc1nc2cnc(N3CCN(C(C)(C)CC#N)CC3)c(C#N)c2c(=O)n1CCOc1ccc(Cl)cc1-c1ccnc2c(C(=O)O)csc12 [compound 1343] | 40.6 nM | – | – |
| Cc1cc(-c2cc(Cl)ccc2OCCn2c(C)nc3c(C)nc(CN(C)C)cc3c2=O)c2scc(C(=O)O)c2n1 [compound 1959] | 46.3 nM | – | – |
| CCN(c1ncc2nc(C)n(CC#Cc3ccc(Cl)cc3-c3ccnc4c(C(=O)NS(C)(=O)=O)csc34)c(=O)c2c1C#N)C1CCN(C2COC2)CC1 [compound 1578] | 20.3 nM | – | – |
| Cc1nc2cnc(Nc3ccccc3)cc2c(=O)n1CCOc1ccc(Cl)cc1-c1cccc(C(=O)O)c1 [compound 2004] | 639 nM | – | – |
| Cc1cc(-c2cc(Cl)ccc2OCCn2c(C)nc3cc(C(F)(F)F)c(N4CCN(C)CC4)c(C#N)c3c2=O)c2sccc2n1 [compound 836] | – | < 50 nM | 2.33 nM |
| Cc1cccc(S(=O)(=O)NC(=O)c2csc3c(-c4cc(Cl)ccc4C#CCn4c(C)nc5cnc(N(C)C6CCN(CC(C)(F)F)CC6)c(C#N)c5c4=O)ccnc23)n1 [compound 1678] | 28 nM | – | – |
| Cc1c(CC#Cc2ccc(Cl)cc2-c2ccnc3c(C(=O)O)csc23)c(=O)c2c(C#N)cc(C(F)(F)F)cc2n1C [compound 665] | – | < 50 nM | 16.5 nM |
| Cc1nc2cnc(N3CC4(C3)CN(C3CCCC3)C4)c(C#N)c2c(=O)n1CCOc1ccc(Cl)cc1-c1ccnc2c(C(=O)O)csc12 [compound 1369] | 13.2 nM | – | – |
| N#Cc1ncc(CCOc2ccc(Cl)cc2-c2cccc(C(=O)O)c2)c2c(=O)[nH]c(Nc3ccccc3)nc12 [compound 179] | – | < 50 nM | 20.6 nM |
| Cc1cc(-c2cc(Cl)ccc2OCCn2c(C)nc3cc(C(F)(F)F)c(N4CC(C)(O)C4)c(C#N)c3c2=O)c2scc(C(=O)O)c2n1 [compound 1055] | – | < 50 nM | 11.7 nM |
| Cc1nc2cnc(N(C)C3CCN(CC(F)(F)F)CC3)c(C#N)c2c(=O)n1CCOc1ccc(Cl)cc1-c1ccnc2c(C(=O)NS(C)(=O)=O)csc12 [compound 1157] | – | < 50 nM | 22 nM |
| Cc1nc2cc(C(F)(F)F)c(CN(C)C)cc2c(=O)n1CCOc1ccc(Cl)cc1-c1ccnc2c(C(=O)O)csc12 [compound 408] | – | < 50 nM | 31.1 nM |
| N#Cc1cccc2nc(C(F)F)n(CCOc3ccc(Cl)cc3-c3cncn(CC(=O)O)c3=S)c(=O)c12 [compound 192] | – | > 1000 nM | 1310 nM |
| Cc1cc(-c2cc(Cl)ccc2OCCn2c(C)nc3cnc(-c4cccc(Cl)c4)c(C#N)c3c2=O)c2scc(C(=O)O)c2n1 [compound 948] | – | < 50 nM | 18.3 nM |
| Cc1cc(-c2cc(Cl)ccc2OCCn2c(C)nc3cnc(OC(F)F)c(C#N)c3c2=O)c2scc(C(=O)O)c2n1 [compound 602] | – | < 50 nM | 10.2 nM |
| Cc1nc2cnc(N3CC[C@H]4CN(CC(F)F)CC[C@H]43)c(C#N)c2c(=O)n1CC#Cc1ccc(Cl)cc1-c1ccnc2c(C(=O)O)csc12 [compound 1556] | 49.9 nM | – | – |
| Cc1nc2cnc(N(C)C3CCN(CC4(CF)CCC4)CC3)c(C#N)c2c(=O)n1CC#Cc1ccc(Cl)cc1-c1ccnc2c(C(=O)O)csc12 [compound 1584] | 36.9 nM | – | – |
| Cc1cc(-c2cc(Cl)ccc2OCCn2c(C)nc3cc(C(F)(F)F)c(-c4cccnc4)nc3c2=O)c2scc(C(=O)O)c2n1 [compound 461] | – | < 50 nM | 6.15 nM |
| Cc1nc2cnc(N(C)C3CCN(CC(C)(F)F)CC3)c(C#N)c2c(=O)n1CC#Cc1ccc(Cl)cc1-c1ccnc2c(C(=O)NS(=O)(=O)c3ccncc3)csc12 [compound 1143] | – | < 50 nM | 24.6 nM |
